From US7638678B2, “Animal model for perimenopause and menopause and methods of inducing ovarian failure” (The Arizona Board of Regents, priority 2002, dated 2009)
Entries after “also recorded” stand apart in the source; their conditions may differ.

Key:
caspase-3 = assay: Caspase-3 protease activity in isolated small pre-antral follicles; format: in vivo, B6C3F1 mice
Experimental: Follicle Isolation: Small preantral follicles (fraction 1, 25-100 μm in diameter), were prepared by gentle enzymatic dissociation of ovaries and hand sorting with micropipettes. Pools of follicles were prepared from both ovaries of six mice in each treatment (control or VCD) for each observation. Following isolation, follicles were washed twice with M199 medium and stored at −20° C.
Caspase-3 Protease Activity Measurement: The cleavage activity of caspase-3 was measured by a fluorescent activity assay. Briefly, the enzymatic reaction was carried out at 37° C. in protease assay buffer (20 mM HEPES, 100 mM NaCl, 10 mM dithiothreitol, 1 mM EDTA, 0.1% [w/v] 3-3 ([3-cholamidopropyl] dimethylammonio)-1-propanesulfanate, and 10% sucrose pH 7.2). Cellular protein (60-180 μg) was incubated with 50 μM of caspase-3 substrate, DEVD-AMC, at 37° C. for 60 minutes. Substrate cleavage was detected by measurement of the fluorescence of free 7-amino-4-methylcoumarin (AMC) with an F-2000 fluorescence spectrophotometer (Hitachi, Ltd., Tokyo, Japan) at 460 nm emission upon excitation at 380 nm.

17β-estradiol = assay: Plasma 17β-estradiol radioimmunoassay; format: in vivo, B6C3F1 mice; conditions: 160 mg/kg 15 d, d37 through d91
Experimental: Treatment: Immature mice (d28) were weighed and injected i.p. with either 80 mg/kg (1, 2, or 3 times daily), 160 mg/kg (1 or 2 times daily), or 240 mg/kg (once daily) with VCD or sesame oil (vehicle control, i.p.) for 15 d resulting in a total daily exposure of 80, 160, 240, or 320 mg/kg (n=6/group). All reagents were obtained from Sigma-Aldrich (St. Louis, Mo.). Estrous cycles of each animal were monitored daily by vaginal cytology from date of vaginal opening to persistent diestrus in VCD-treated mice, and from date of vaginal opening to d120 in controls. On d8, d10, d12, d14, d15, d30, d37, d46, d57 and d120, animals were weighed, euthanized by CO2 inhalation, and the ovaries, liver and trunk blood were collected. […] At each time point, adrenals, kidneys, uteri, ovaries, liver, and spleen were removed, grossly examined for lesions and wet tissue weights were recorded. […]
Hormone Assays: Plasma FSH was measured by radioimmunoassay (RIA). […] Tubes were centrifuged for 15 minutes at 3000 rpm, supernatant was decanted and pellets were counted in a gamma counter for 1 minute each. […] Plasma 17β-estradiol was measured in unextracted plasma by radioimmunoassay (Diagnostic Products Inc., CA). […] Circulating androstenedione was measured by specific RIA. […] The results of all RIAs were calculated by four-parameter logistic analysis using the software AssayZap (BioSoft, Ferguson, Mo.). […]

osteocalcin = assay: Osteocalcin immunoradiometric assay; format: in vivo, B6C3F1 mice; conditions: 160 mg/kg i.p. 15 d
Experimental: Osteocalcin measurement: Intact serum Osteocalcin was measured using an immunoradiometric assay (IRMA, Immutopics, San Clemente, Calif.). Assay sensitivity was 0.4 ng/ml and the intra-assay coefficient of variation was 6.7%.

femur = assay: Femur histology; format: in vivo, B6C3F1 mice; conditions: 160 mg/kg 15 d, femora d58
Experimental: Histology and oocyte counting: Ovaries were trimmed of fat and placed in Bouin's fixative (2 hours), transferred to 70% ethanol, paraffin-embedded and serially sectioned (4-5 μm), mounted and stained with hematoxylin and eosin. In every 20th section (10-13 sections per ovary), pre-antral follicles were classified as primordial (oocyte surrounded by a single layer of flattened granulosa cells), primary (oocyte surrounded by a single layer of cuboidal cells), secondary (oocyte surrounded by multiple layers of granulosa cells) or antral follicles (follicles containing a fluid-filled antrum). Femora were collected on d58 from both control and VCD-treated animals, fixed in 4% paraformaldehyde, transferred to formaldehyde/formic acid (Cal-Rite, Richard Allan Scientific, Kalamazoo, […]., decalcified 24 hours, vacuum embedded in paraffin and 4.5 μm sections of distal metaphysis were prepared and stained with hematoxylin and eosin.

[1] = Tolerability of VCD dosing regimens; format: in vivo, mice
ovarian follicles [2] = assay: Follicle depletion by other routes and vehicles; format: in vivo; conditions: i.p. injection in DMSO vehicle
[3] = intravenous 14C-tagged VCD, cited from earlier work
ovarian follicles [4] = conditions: cited from earlier work
ovarian follicles [5] = conditions: mice, cited from earlier work

## C1CC2OC2CC1C1CO1 (centres unmarked) [VCD, 4-vinylcyclohexene diepoxide]
caspase-3; 160 mg/kg or 80 mg/kg i.p., 10 d, 4 hours after final treatment
  Cleavage activity of caspase-3 in isolated small pre-antral follicles relative to controls: increased
caspase-3; 160 mg/kg/day i.p., 10 d of dosing
  Caspase-3 activity in small pre-antral (primordial and primary) follicles: 14.37 flourescent units/40 μg protein
17β-estradiol
  Plasma levels of 17β-estradiol: below the limit of detection
osteocalcin; d46
  Plasma osteocalcin: 131.3 ± 5.4 ng/mL
osteocalcin; d58
  Plasma osteocalcin: 156.3 ± 6.1 ng/mL
osteocalcin; d120 (not different from control)
  Plasma osteocalcin: 143.4 ± 7.1 ng/mL
femur
  Femur morphology relative to controls: enhanced distances from growth plate to distal metaphysis of the femur with increased lucane
[1]; 160 mg/kg/d i.p. for 15 d
  Adverse effects of the single daily injection regimen: without adverse effects
[1]; 2400 mg/kg single bolus
  Outcome of total dose injected in a single bolus: died and die within hours
[1]; 3 times a day @ 80 mg/kg (total 240 mg/kg/d)
  Tolerance of dosing 3 times a day: tolerated VCD as well as mice injected once a day with 160 mg/kg; also recorded: tolerate VCD well
Ovarian follicles [2]
  Follicular depletion with DMSO vehicle versus sesame oil: achieves the same follicular depletion
[3]; blood
  Half life: 4.4 min
[3]
  Mean residence time: 4.7 min
Ovarian follicles [4]; dermal application in acetone
  Activity on dermal application: active
Ovarian follicles [4]; oral, dermal, or inhalation exposure
  Follicle loss after other routes of exposure: follicle loss also occurs
Ovarian follicles [5]; 12 days of dosing
  Number of primordial and primary follicles compared to vehicle controls: significant reduction
Ovarian follicles [5]; 30 days of dosing
  Numbers of secondary follicles: significant reduction
